Laboratory results taken from US20220339143A1, “TAK-925 FOR USE IN TREATING NARCOLEPSY” (Takeda Pharmaceutical Company Limited, priority 2019, published 2022).

Test system: patients with narcolepsy type 1 (NT1)
Assay: Subjective daytime sleepiness as assessed by Karolinska Sleepiness Scale (KSS), single dose (Cohorts 5, 6, 7)
Format: in vivo, human
Settings: for KSS Change from Baseline, Mean / KSS Change from Baseline, Median / KSS Observed Value at Visit, Mean / KSS Observed Value at Visit, Median: Cmpd A 5 mg (N = 6)
Method: Daytime sleepiness as assessed by the Karolinska Sleepiness Scale (KSS).
Daytime sleepiness as assessed by KSS at predose and hourly until 11 hours after the start of infusion is presented in Table 13 as summary, in Table 14 as ANOVA and in Table 15 as ANOVA of change from baseline.

## COC(=O)N1CCC[C@H](NS(C)(=O)=O)[C@@H]1CO[C@H]1CC[C@@H](c2ccccc2)CC1 [Compound A, methyl (2R,3S)-3-((methylsulfonyl)amino)-2-(((cis-4-phenylcyclohexyl)oxy)methyl)piperidine-1-carboxylate]
5 mg
  LS mean difference (95% CI) of KSS vs placebo during the 9 hour infusion, upper end of range: −0.667 (−2.641, 1.307)
5 mg, 1 hr
  Change from Baseline in KSS, ANOVA Estimate (Cmpd A - Placebo): −2.833
  KSS, ANOVA Estimate (Cmpd A - Placebo): −2.000
5 mg, 2 hr
  Change from Baseline in KSS, ANOVA Estimate (Cmpd A - Placebo): −4.333
  KSS, ANOVA Estimate (Cmpd A - Placebo): −3.500
5 mg, 3 hr
  Change from Baseline in KSS, ANOVA Estimate (Cmpd A - Placebo): −2.167
  KSS, ANOVA Estimate (Cmpd A - Placebo): −1.333
5 mg, 4 hr
  Change from Baseline in KSS, ANOVA Estimate (Cmpd A - Placebo): −4.167
  KSS, ANOVA Estimate (Cmpd A - Placebo): −3.333
5 mg, 5 hr
  Change from Baseline in KSS, ANOVA Estimate (Cmpd A - Placebo): −3.500
  KSS, ANOVA Estimate (Cmpd A - Placebo): −2.667
5 mg, 6 hr
  Change from Baseline in KSS, ANOVA Estimate (Cmpd A - Placebo): −4.333
  KSS, ANOVA Estimate (Cmpd A - Placebo): −3.500
5 mg, 7 hr
  Change from Baseline in KSS, ANOVA Estimate (Cmpd A - Placebo): −4.333
  KSS, ANOVA Estimate (Cmpd A - Placebo): −3.500
5 mg, 8 hr
  Change from Baseline in KSS, ANOVA Estimate (Cmpd A - Placebo): −3.500
  KSS, ANOVA Estimate (Cmpd A - Placebo): −2.667
5 mg, 9 hr
  Change from Baseline in KSS, ANOVA Estimate (Cmpd A - Placebo): −1.500
  KSS, ANOVA Estimate (Cmpd A - Placebo): −0.667
5 mg, 10 hr
  Change from Baseline in KSS, ANOVA Estimate (Cmpd A - Placebo): −2.000
  KSS, ANOVA Estimate (Cmpd A - Placebo): −1.167
5 mg, 11 hr
  Change from Baseline in KSS, ANOVA Estimate (Cmpd A - Placebo): −0.167
  KSS, ANOVA Estimate (Cmpd A - Placebo): 0.667
5 mg, at 2 hour, 6 hour and 7 hour after the start of infusion
  LS mean difference (95% CI) of KSS vs placebo during the 9 hour infusion, lower end of range: −3.500
11.2 mg
  LS mean difference (95% CI) of KSS vs placebo during the 9 hour infusion, lower end of range: −4.000 (−7.331, −0.669)
  LS mean difference (95% CI) of KSS vs placebo during the 9 hour infusion, upper end of range: −1.500 (−3.439, 0.439)
11.2 mg, 1 hr
  Change from Baseline in KSS, ANOVA Estimate (Cmpd A - Placebo): −4.500
  KSS, ANOVA Estimate (Cmpd A - Placebo): −3.500
11.2 mg, 2 hr
  Change from Baseline in KSS, ANOVA Estimate (Cmpd A - Placebo): −4.500
  KSS, ANOVA Estimate (Cmpd A - Placebo): −3.500
11.2 mg, 3 hr
  Change from Baseline in KSS, ANOVA Estimate (Cmpd A - Placebo): −2.500
  KSS, ANOVA Estimate (Cmpd A - Placebo): −1.500
11.2 mg, 4 hr
  Change from Baseline in KSS, ANOVA Estimate (Cmpd A - Placebo): −5.000
  KSS, ANOVA Estimate (Cmpd A - Placebo): −4.000
11.2 mg, 5 hr
  Change from Baseline in KSS, ANOVA Estimate (Cmpd A - Placebo): −4.000
  KSS, ANOVA Estimate (Cmpd A - Placebo): −3.000
11.2 mg, 6 hr
  Change from Baseline in KSS, ANOVA Estimate (Cmpd A - Placebo): −4.000
  KSS, ANOVA Estimate (Cmpd A - Placebo): −3.000
11.2 mg, 7 hr
  Change from Baseline in KSS, ANOVA Estimate (Cmpd A - Placebo): −4.500
  KSS, ANOVA Estimate (Cmpd A - Placebo): −3.500
11.2 mg, 8 hr
  Change from Baseline in KSS, ANOVA Estimate (Cmpd A - Placebo): −3.500
  KSS, ANOVA Estimate (Cmpd A - Placebo): −2.500
11.2 mg, 9 hr
  Change from Baseline in KSS, ANOVA Estimate (Cmpd A - Placebo): −3.000
  KSS, ANOVA Estimate (Cmpd A - Placebo): −2.000
11.2 mg, 10 hr
  Change from Baseline in KSS, ANOVA Estimate (Cmpd A - Placebo): −2.500
  KSS, ANOVA Estimate (Cmpd A - Placebo): −1.500
11.2 mg, 11 hr
  Change from Baseline in KSS, ANOVA Estimate (Cmpd A - Placebo): −2.000
  KSS, ANOVA Estimate (Cmpd A - Placebo): −1.000
44.8 mg
  LS mean difference (95% CI) of KSS vs placebo during the 9 hour infusion, lower end of range: −6.947 (−9.139, −4.756)
  LS mean difference (95% CI) of KSS vs placebo during the 9 hour infusion, upper end of range: −2.868 (−6.851, 1.114)
44.8 mg, 1 hr
  Change from Baseline in KSS, ANOVA Estimate (Cmpd A - Placebo): −5.237
  KSS, ANOVA Estimate (Cmpd A - Placebo): −6.947
44.8 mg, 2 hr
  Change from Baseline in KSS, ANOVA Estimate (Cmpd A - Placebo): −3.053
  KSS, ANOVA Estimate (Cmpd A - Placebo): −4.763
44.8 mg, 3 hr
  Change from Baseline in KSS, ANOVA Estimate (Cmpd A - Placebo): −1.553
  KSS, ANOVA Estimate (Cmpd A - Placebo): −3.263
44.8 mg, 4 hr
  Change from Baseline in KSS, ANOVA Estimate (Cmpd A - Placebo): −2.184
  KSS, ANOVA Estimate (Cmpd A - Placebo): −3.895
44.8 mg, 5 hr
  Change from Baseline in KSS, ANOVA Estimate (Cmpd A - Placebo): −2.026
  KSS, ANOVA Estimate (Cmpd A - Placebo): −3.737
44.8 mg, 6 hr
  Change from Baseline in KSS, ANOVA Estimate (Cmpd A - Placebo): −1.158
  KSS, ANOVA Estimate (Cmpd A - Placebo): −2.868
44.8 mg, 7 hr
  Change from Baseline in KSS, ANOVA Estimate (Cmpd A - Placebo): −3.737
  KSS, ANOVA Estimate (Cmpd A - Placebo): −5.447
44.8 mg, 8 hr
  Change from Baseline in KSS, ANOVA Estimate (Cmpd A - Placebo): −2.921
  KSS, ANOVA Estimate (Cmpd A - Placebo): −4.632
44.8 mg, 9 hr
  Change from Baseline in KSS, ANOVA Estimate (Cmpd A - Placebo): −2.868
  KSS, ANOVA Estimate (Cmpd A - Placebo): −4.579
44.8 mg, 10 hr
  Change from Baseline in KSS, ANOVA Estimate (Cmpd A - Placebo): −0.632
  KSS, ANOVA Estimate (Cmpd A - Placebo): −2.342
44.8 mg, 11 hr
  Change from Baseline in KSS, ANOVA Estimate (Cmpd A - Placebo): 0.974
  KSS, ANOVA Estimate (Cmpd A - Placebo): −0.737
1 hr after start of infusion
  KSS Change from Baseline, Mean: −2.3
  KSS Change from Baseline, Median: −2.5
  KSS Observed Value at Visit, Mean: 2.7
  KSS Observed Value at Visit, Median: 2.5
2 hr after start of infusion
  KSS Change from Baseline, Mean: −2.8
  KSS Change from Baseline, Median: −2.5
  KSS Observed Value at Visit, Mean: 2.2
  KSS Observed Value at Visit, Median: 2.0
3 hr after start of infusion
  KSS Change from Baseline, Mean: −3.2
  KSS Change from Baseline, Median: −3.5
  KSS Observed Value at Visit, Mean: 1.8
  KSS Observed Value at Visit, Median: 1.5
4 hr after start of infusion
  KSS Change from Baseline, Mean: −2.8
  KSS Change from Baseline, Median: −2.5
  KSS Observed Value at Visit, Mean: 2.2
  KSS Observed Value at Visit, Median: 1.5
5 hr after start of infusion
  KSS Change from Baseline, Mean: −3.0
  KSS Change from Baseline, Median: −3.0
  KSS Observed Value at Visit, Mean: 2.0
  KSS Observed Value at Visit, Median: 2.0
6 hr after start of infusion
  KSS Change from Baseline, Mean: −3.2
  KSS Change from Baseline, Median: −3.5
  KSS Observed Value at Visit, Mean: 1.8
  KSS Observed Value at Visit, Median: 1.5
7 hr after start of infusion
  KSS Change from Baseline, Mean: −2.5
  KSS Change from Baseline, Median: −2.5
  KSS Observed Value at Visit, Mean: 2.5
  KSS Observed Value at Visit, Median: 2.5
8 hr after start of infusion
  KSS Change from Baseline, Mean: −2.7
  KSS Change from Baseline, Median: −3.0
  KSS Observed Value at Visit, Mean: 2.3
